Measurements published in patent publication US11926628B2 (Gilead Sciences, Inc., priority 2021, dated 2024).

Experiments:
[1] = system: Jurkat NFκB-luciferase cells; assay: Jurkat NFκB-Luciferase Assay; assay type: cell-based; details: Homo sapiens; Jurkat NFκB-luciferase cells activated with anti-CD3 antibody (OKT3), 2.5 hrs at 37° C.; geometric mean; read-out: DGK NFKb Luciferase EC50
Experimental: The activity of compounds was tested in a cell based NFκB reporter assay. Jurkat cells that are stably expressing a luciferase reporter construct under the transcriptional control of a NFκB reporter element were activated with an anti-CD3 antibody and luciferase levels were measured with a bioluminescence readout. An increase in the levels of bioluminescence was indicative of enhanced T-cell activation following DGKα inhibition by the compound.
Flat-bottom polystyrene plates (384-well, tissue culture treated) were coated overnight at 4° C. with 20 ul/well of a solution of phosphate-buffered saline supplemented with 5 ug/ml anti-CD3 antibody (clone OKT3, Biolegend). The day after, the excess antibody was washed out five times with 100 ul/well of assay medium (RPMI supplemented with 10% fetal bovine serum) using a Biotek EL406 instrument and leaving 20 ul of residual volume in each well. Jurkat NFκB-luciferase cells (Promega #) were harvested and diluted to 1 million cells/ml in assay medium. Sixty nanoliters of test compound dissolved in DMSO at various concentrations were dispensed into 384-well v-bottom polypropylene plates (Greiner) using a Labcyte Echo instrument. Thirty microliters of medium containing the Jurkat NFκB-luciferase cells were then dispensed using a Biotek MicroFlo instrument in each well of the compound-containing plate. The medium/cell/compound mixture was mixed with a Bravo instrument and 20 ul/well of the mixture was transferred to the anti-CD3-coated plate. The assay mixture was then incubated for 2.5 hrs at 37° C. followed by equilibration at 25° C. for 30 min. Forty microliters of One-Glo Ex (Promega) was then added to the assay mixture and luciferase activity was read on a Envision plate reader 7 minutes later.
Bioluminescence data were normalized based on maximum enhancement (1 micromolar of compound) and on basal activation (DMSO) controls. Least squares curve fittings were performed using a four-parameter variable slope nonlinear regression model. EC50 is defined as the concentration of compound required to produce 50% of maximum NFκB luciferase signal. EC50 values from multiple experiments were averaged by geometric mean and the standard deviation was calculated.

human DGKα = human DGKα (Homo sapiens (Human), UniProt P23743); assay: DGKα Biochemical Activity Assay (ADP-Glo); details: recombinant DGKα 1 nM, 100 μM ATP, 18:1 DAG/POPS/octylglucoside micelles, 1 hour at 25° C.; geometric mean; read-out: HTBS DGKa 1X ATP KM IC50
Source text: Alternatively, the enzymatic activity of human DGKα was monitored in a biochemical assay in the presence or absence of compounds and using micelles containing 18:1 Diacylglycerol (DAG), 16:0-18:1 PS (POPS) and Octylglucoside as substrate. DGKα activity led to conversion of DAG and ATP to Phosphatidic Acid (PA) and ADP. Levels of ADP were monitored by bioluminescence using the ADP-Glo Kinase Assay (Promega) and were indicative of DGKα activity.
Ten nanoliters of test compound dissolved in DMSO at various concentrations were dispensed into a 384-well low volume nonbinding service white plates (Corning #3824) using a Labcyte Echo instrument. Recombinant DGKα (Carna Biosciences) in assay buffer (5 μL in 50 mM MOPS [3-(N-morpholino) propanesulfonic acid], pH 7.2; 0.0025% Triton X-100; 1 mM dithiothreitol; 5 mM MgCl2, 200 μM ATP) was added to the compound-containing plate and was incubated for 15 minutes at 25° C. A substrate solution (5 μL in 1.7 mM 1,2-dioleoyl-sn-glycerol [18:1 DAG], 13.5 mM 1-palmitoyl-2-oleoyl-sn-glycero-3-phospho-L-serine [16:0-18:1 PS](POPS), 2 μM CaCl2, 100 mM Octylglucoside (OG), 1 mM DTT) (obtained from Carna Biosciences) diluted in DGK ALPHA assay buffer was then added to start the reaction. Final concentrations were 1 nM DGKα, 100 μM ATP, 1 μM calcium chloride, 0.85 mM 1,2-dioleoyl-sn-glycerol (18:1 DAG), 6.75 mM 1-palmitoyl-2-oleoyl-sn-glycero-3-phospho-L-serine (16:0-18:1 PS) (POPS), 1 μM CaCl2), 50 mM Octylglucoside (OG) and 5 mM MgCl2. The reaction mixture was incubated at 25° C. for 1 hour. ADP-Glo Reagent (10 μL, 10 mM Mg added) provided by the kit was added to each well and incubated at 25° C. for 40 minutes. Then, 20 μL of Kinase Detection Reagent was added and incubated at 25° C. for 40 minutes. Luciferase activity of each well was measured via luminescence on an Envision plate reader (PerkinElmer).
Data were normalized based on maximum inhibition (50 μM of kinase inhibitor CU3) and no inhibition (DMSO) controls. Least squares curve fittings were performed using a four-parameter variable slope nonlinear regression model. IC50 was defined as the concentration of compound required to inhibit 50% of maximum activity. IC50 values from multiple experiments were averaged by geometric mean and the standard deviation was calculated.

Sequence of human DGKα (P23743 whole entry): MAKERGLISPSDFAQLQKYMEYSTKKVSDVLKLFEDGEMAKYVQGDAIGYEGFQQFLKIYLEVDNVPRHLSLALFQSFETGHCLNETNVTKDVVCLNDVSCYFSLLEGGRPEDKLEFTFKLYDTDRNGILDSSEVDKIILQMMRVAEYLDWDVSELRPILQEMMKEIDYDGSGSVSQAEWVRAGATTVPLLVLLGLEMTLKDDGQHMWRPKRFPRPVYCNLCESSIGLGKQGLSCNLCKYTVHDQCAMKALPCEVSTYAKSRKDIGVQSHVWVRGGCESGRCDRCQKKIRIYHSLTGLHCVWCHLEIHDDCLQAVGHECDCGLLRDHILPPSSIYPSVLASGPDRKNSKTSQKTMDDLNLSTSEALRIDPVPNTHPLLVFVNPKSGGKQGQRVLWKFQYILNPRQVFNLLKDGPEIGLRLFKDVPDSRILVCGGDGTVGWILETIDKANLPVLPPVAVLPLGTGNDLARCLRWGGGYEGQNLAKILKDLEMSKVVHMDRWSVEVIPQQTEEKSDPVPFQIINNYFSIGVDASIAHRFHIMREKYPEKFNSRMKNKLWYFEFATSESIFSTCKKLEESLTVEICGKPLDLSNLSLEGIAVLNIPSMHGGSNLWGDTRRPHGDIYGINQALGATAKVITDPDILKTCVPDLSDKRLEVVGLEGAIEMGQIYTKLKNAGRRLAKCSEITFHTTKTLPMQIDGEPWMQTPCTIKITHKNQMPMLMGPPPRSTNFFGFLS

EC50 [1] [nM] | IC50 (human DGKα) [nM] | Compound
14 | 165 | CN(c1cccc(C#CC(C)(C)O)c1)c1nc2nccn2c2cc(Cl)ccc12 [Example 1, 4-(3-((8-chloroimidazo[1,2-a]quinazolin-5-yl)(methyl)amino)phenyl)-2-methylbut-3-yn-2-ol]
5.11 | 2310 | CN(c1cc(F)cc(C#CC2(C(F)(F)F)CC2)c1)c1nc2cncn2c2cc(Cl)ccc12 [Example 2, 8-chloro-N-[3-fluoro-5-[2-[1-(trifluoromethyl)cyclopropyl]ethynyl]phenyl]-N-methyl-imidazo[1,5-a]quinazolin-5-amine]
14.6 | 839 | CN(c1cc(F)cc(C#CC(C)(C)O)c1)c1nc2cncn2c2cc(Cl)ccc12 [Example 3, 4-[3-[(8-chloroimidazo[1,5-a]quinazolin-5-yl)-methyl-amino]-5-fluoro-phenyl]-2-methyl-but-3-yn-2-ol]
0.669 | 27.6 | CN(c1cc(F)cc(-c2cnc(C3CC3)cn2)c1)c1nc2nnnn2c2cc(Cl)ccc12 [Example 4, 8-chloro-N-(3-(5-cyclopropylpyrazin-2-yl)-5-fluorophenyl)-N-methyltetrazolo[1,5-a]quinazolin-5-amine]
4.2 | 28.4 | CN(c1cccc(-c2ccc(N3CCCS3(=O)=O)cc2)c1)c1nc2nnnn2c2cc(Cl)ccc12 [Example 5, 2-(3′-((8-chlorotetrazolo[1,5-a]quinazolin-5-yl)(methyl)amino)-[1,1′-biphenyl]-4-yl)isothiazolidine 1,1-dioxide]
1.31 | 15.7 | CN(c1cc(F)cc(-c2cnc(C3CC3)cn2)c1)c1nc2nnnn2c2ccc(F)cc12 [Example 6, N-(3-(5-cyclopropylpyrazin-2-yl)-5-fluorophenyl)-7-fluoro-N-methyltetrazolo[1,5-a]quinazolin-5-amine]
7.41 | 117 | CCN(c1cc(F)cc(-c2ccc(N3CC4(CC4)CS3(=O)=O)nc2)c1)c1nc2nnnn2c2cc(Cl)ccc12 [Example 7]
4.66 | 31.1 | CN(c1cc(F)cc(-c2ccc(N3CC4(CC4)CS3(=O)=O)nc2)c1)c1nc2nnnn2c2ccc(F)cc12 [Example 8]
1.75 | 44.3 | CN(c1cccc(-c2cnc(C3CC3)cn2)c1)c1nc2nnnn2c2cc(Cl)ccc12 [Example 9, 8-chloro-N-(3-(5-cyclopropylpyrazin-2-yl)phenyl)-N-methyltetrazolo[1,5-a]quinazolin-5-amine]
8.66 | 93.1 | CN(c1cccc(C#CC(C)(C)O)c1)c1nc2nnnn2c2cc(Cl)ccc12 [Example 10, 4-(3-((8-chlorotetrazolo[1,5-a]quinazolin-5-yl)(methyl)amino)phenyl)-2-methylbut-3-yn-2-ol]
36.4 | 430 | CN(c1cccc(Br)c1)c1nc2nnnn2c2cc(Cl)ccc12 [Example 11, N-(3-bromophenyl)-8-chloro-N-methyltetrazolo[1,5-a]quinazolin-5-amine]
2.52 | 107 | CN(c1cc(F)cc(C#CC(C)(C)C(F)F)c1)c1nc2nnnn2c2ccc(F)cc12 [Example 12]
1.54 | 65.7 | CN(c1cc(F)cc(C#CC2(C(F)F)CC2)c1)c1nc2nnnn2c2ccc(F)cc12 [Example 14]
1.79 | 42.9 | CN(c1cc(F)cc(C#CC(C)(C)C)c1)c1nc2nnnn2c2ccc(F)cc12 [Example 15]
3.24 | 22.4 | CN(c1cc(F)cc(C#CC2(C(F)(F)F)CC2)c1)c1nc2nnnn2c2ccc(F)cc12 [Example 16]
44.3 | 77.7 | Cc1nnc2nc(N(CC(F)F)c3cc(F)cc(C#CC(C)(C)O)c3)c3ncccc3n12 [Example 17, 4-(3-((2,2-difluoroethyl)(1-methylpyrido[2,3-e][1,2,4]triazolo[4,3-a]pyrimidin-5-yl)amino)-5-fluorophenyl)-2-methylbut-3-yn-2-ol]
4.73 | 64.4 | Cc1nnc2nc(N(CC(F)F)c3cc(F)cc(C#CC4(C(F)(F)F)CC4)c3)c3ncccc3n12 [Example 18, N-(2,2-difluoroethyl)-N-(3-fluoro-5-((1-(trifluoromethyl)cyclopropyl)ethynyl)phenyl)-1-methylpyrido[2,3-e][1,2,4]triazolo[4,3-a]pyrimidin-5-amine]
47.7 | 67.6 | CC(C)(O)C#Cc1cc(F)cc(N(CC(F)F)c2nc3nncn3c3cccnc23)c1 [Example 19, 4-(3-((2,2-difluoroethyl)(pyrido[2,3-e][1,2,4]triazolo[4,3-a]pyrimidin-5-yl)amino)-5-fluorophenyl)-2-methylbut-3-yn-2-ol]
2.4 | – | Cc1nnc2nc(N3CCCc4c(C#CC5(C(F)(F)F)CC5)cccc43)c3c(F)cncc3n12 [Example 41, 6-fluoro-1-methyl-5-(5-((1-(trifluoromethyl)cyclopropyl)ethynyl)-3,4-dihydroquinolin-1(2H)-yl)pyrido[4,3-e][1,2,4]triazolo[4,3-a]pyrimidine]
6.75 | – | CN(c1cccc(C#CC(C)(C)C)c1)c1nc2nncn2c2cnccc12 [Example 60]
5.98 | – | Cc1nnc2nc(N3CCCCc4c(C#CC(C)(C)C#N)cccc43)c3c(F)cncc3n12 [Example 64, 4-(1-(6-fluoro-1-methylpyrido[4,3-e][1,2,4]triazolo[4,3-a]pyrimidin-5-yl)-2,3,4,5-tetrahydro-1H-benzo[b]azepin-6-yl)-2,2-dimethylbut-3-ynenitrile]
9.9 | – | CN(C)c1ccc2c(N(C)c3cccc(C#CC(C)(C)C)c3)nc3nncn3c2n1 [Example 110, N^5-(3-(3,3-dimethylbut-1-yn-1-yl)phenyl)-N^2,N^2,N^5-trimethylpyrido[3,2-e][1,2,4]triazolo[4,3-a]pyrimidine-2,5-diamine]
20.1 | – | COc1ccc(-c2cccc(N(C)c3nc4nncn4c4nc(N(C)C)ccc34)c2)cn1 [Example 111, N^5-(3-(6-methoxypyridin-3-yl)phenyl)-N^2,N^2,N^5-trimethylpyrido[3,2-e][1,2,4]triazolo[4,3-a]pyrimidine-2,5-diamine]
0.982 | – | CN(C)c1ccc2c(N(C)c3cccc(-c4ccc(C5CC5)cc4)c3)nc3nncn3c2n1 [Example 112, N^5-(4′-cyclopropyl-[1,1′-biphenyl]-3-yl)-N^2,N^2,N^5-trimethylpyrido[3,2-e][1,2,4]triazolo[4,3-a]pyrimidine-2,5-diamine]
67.2 | – | CCOc1ccc2c(N(C)c3cccc(-c4ccc(C5CC5)cc4)c3)nc3nncn3c2n1 [Example 113, N-(4′-cyclopropyl-[1,1′-biphenyl]-3-yl)-2-ethoxy-N-methylpyrido[3,2-e][1,2,4]triazolo[4,3-a]pyrimidin-5-amine]

Compound | EC50 [1] [nM] | IC50 (human DGKα) [nM]
CN(c1cc(F)cc(C#CC(C)(C)O)c1)c1nc2nnnn2c2ccc(F)cc12 [Example 13, 4-(3-fluoro-5-((7-fluorotetrazolo[1,5-a]quinazolin-5-yl)(methyl)amino)phenyl)-2-methylbut-3-yn-2-ol] | 7.54 | 12.8
